Source: the supplement of paper PMC10307832

Each cell line was assayed with Cc1cc([C@@H](C)Nc2ccccc2C(=O)O)c2nc(N3CCOCC3)cc(=O)n2c1 [AZD6482] + N=C(N)NC(=N)NCCc1ccccc1 [Phenformin] (partner 250 µM) (assay: relative viability (nuclei count vs DMSO), 5 days (fraction); higher = more cells survive). Settings: first compound 0.08 µM.
How it was run: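 Lung cancer cell lines were seeded in 1536-well plates and dosed by pin tool the next day, with either a single drug or a fixed anchor-drug dose combined with five library-drug doses (not always all listed) spaced in √10 steps. Five days later, one step fixed the cells and stained their nuclei (final 0.05% Triton X-100, 1% formaldehyde, 1 ug/ml Hoechst), and nuclei were counted on 4× images. Relative viability is the nuclei count in treated wells divided by the count in vehicle wells, and each value is the median of duplicate plates.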

Row | Cell Line | relative viability
1 | NCI-H2342 | 0.517
2 | NCI-H1623 | 0.577
3 | NCI-H727 | 0.445
4 | NCI-H1650 | 0.333
5 | NCI-H1993 | 0.49
6 | SW 1573 | 0.301
7 | NCI-H838 | 0.459
8 | LCLC-103H | 0.255
9 | NCI-H520 | 0.402
10 | NCI-H2126 | 0.507
11 | EMC-BAC-2 | 0.489
12 | NCI-H2085 | 0.483
13 | HCC-366 | 0.663
14 | NCI-H1666 | 0.532
15 | NCI-H596 | 0.658
16 | LK-2 | 0.405

Row | Cell Line | relative viability
17 | NCI-H2087 | 0.44
18 | SK-MES-1 | 0.612
19 | H3255 | 0.356
20 | COR-L23 | 0.412
21 | COR-L 105 | 0.515
22 | LOU-NH91 | 0.546
23 | ChaGo-K-1 | 0.54
24 | NCI-H2170 | 0.418
25 | NCI-H2405 | 0.274
26 | HOP-62 | 0.679
27 | HCC-44 | 0.255
28 | A549 | 0.154
29 | NCI-H522 | 0.607
30 | LU99A | 0.903
31 | BEN | 0.349
32 | NCI-H1563 | 0.684

Same assay, conditions: first compound 0.253 µM

Row | Cell Line | relative viability
33 | NCI-H2342 | 0.569
34 | NCI-H1623 | 0.579
35 | NCI-H727 | 0.683
36 | NCI-H1650 | 0.369
37 | NCI-H1993 | 0.488
38 | SW 1573 | 0.296
39 | NCI-H838 | 0.519
40 | LCLC-103H | 0.274
41 | NCI-H520 | 0.283
42 | NCI-H2126 | 0.521
43 | EMC-BAC-2 | 0.445
44 | NCI-H2085 | 0.448
45 | HCC-366 | 0.609
46 | NCI-H1666 | 0.548
47 | NCI-H596 | 0.576
48 | LK-2 | 0.382

Row | Cell Line | relative viability
49 | NCI-H2087 | 0.442
50 | SK-MES-1 | 0.75
51 | H3255 | 0.333
52 | COR-L23 | 0.445
53 | COR-L 105 | 0.443
54 | LOU-NH91 | 0.718
55 | ChaGo-K-1 | 0.397
56 | NCI-H2170 | 0.432
57 | HOP-62 | 0.733
58 | HCC-44 | 0.14
59 | A549 | 0.14
60 | NCI-H522 | 0.764
61 | LU99A | 0.848
62 | BEN | 0.281
63 | NCI-H1563 | 0.653

Same assay, conditions: first compound 0.8 µM

Row | Cell Line | relative viability
64 | NCI-H2342 | 0.682
65 | NCI-H1623 | 0.531
66 | NCI-H727 | 0.465
67 | NCI-H1650 | 0.373
68 | NCI-H1993 | 0.471
69 | SW 1573 | 0.383
70 | NCI-H838 | 0.497
71 | LCLC-103H | 0.342
72 | NCI-H520 | 0.285
73 | NCI-H2126 | 0.451
74 | EMC-BAC-2 | 0.493
75 | NCI-H2085 | 0.406
76 | HCC-366 | 0.636
77 | NCI-H1666 | 0.582
78 | NCI-H596 | 0.636
79 | LK-2 | 0.257

Row | Cell Line | relative viability
80 | NCI-H2087 | 0.474
81 | SK-MES-1 | 0.611
82 | H3255 | 0.386
83 | COR-L23 | 0.455
84 | COR-L 105 | 0.446
85 | LOU-NH91 | 0.737
86 | ChaGo-K-1 | 0.446
87 | NCI-H2170 | 0.421
88 | NCI-H2405 | 0.346
89 | HOP-62 | 0.745
90 | HCC-44 | 0.189
91 | A549 | 0.222
92 | NCI-H522 | 0.7
93 | LU99A | 0.791
94 | BEN | 0.24
95 | NCI-H1563 | 0.67

Same assay, conditions: first compound 2.53 µM

Row | Cell Line | relative viability
96 | NCI-H2342 | 0.373
97 | NCI-H1623 | 0.502
98 | NCI-H727 | 0.488
99 | NCI-H1650 | 0.233
100 | NCI-H1993 | 0.524
101 | SW 1573 | 0.19
102 | NCI-H838 | 0.263
103 | LCLC-103H | 0.251
104 | NCI-H520 | 0.166
105 | NCI-H2126 | 0.355
106 | EMC-BAC-2 | 0.352
107 | NCI-H2085 | 0.318
108 | HCC-366 | 0.477
109 | NCI-H1666 | 0.525
110 | NCI-H596 | 0.691
111 | LK-2 | 0.338

Row | Cell Line | relative viability
112 | SK-MES-1 | 0.357
113 | H3255 | 0.343
114 | COR-L23 | 0.343
115 | COR-L 105 | 0.409
116 | LOU-NH91 | 0.46
117 | ChaGo-K-1 | 0.48
118 | NCI-H2170 | 0.386
119 | NCI-H2405 | 0.309
120 | HOP-62 | 0.577
121 | HCC-44 | 0.169
122 | A549 | 0.158
123 | NCI-H522 | 0.654
124 | LU99A | 0.691
125 | BEN | 0.277
126 | NCI-H1563 | 0.65

Same assay, conditions: first compound 8 µM

Row | Cell Line | relative viability
127 | NCI-H2342 | 0.429
128 | NCI-H1623 | 0.534
129 | NCI-H727 | 0.315
130 | NCI-H1650 | 0.297
131 | NCI-H1993 | 0.449
132 | SW 1573 | 0.221
